Calls of active or inactive are those of the source. No cut-off for these calls is given here.
Columns and labels:
Assay type in all cases: functional
[1] = Cytotoxicity against human HO8910 cells assessed as growth inhibition at 100 ug/ml after 24 hrs by MTT assay; conditions: HO-8910, 24 h, read-out: GI
[2] = Cytotoxicity against human HO8910 cells assessed as growth inhibition at 1 ug/ml after 24 hrs by MTT assay; conditions: HO-8910, 24 h, read-out: GI
KB [3] = assay: Cytotoxicity against human KB cells assessed as growth inhibition at 100 ug/ml after 24 hrs by MTT assay; conditions: read-out: GI
KB [4] = assay: Cytotoxicity against human KB cells assessed as growth inhibition at 10 ug/ml after 24 hrs by MTT assay; conditions: read-out: GI
KB [5] = assay: Cytotoxicity against human KB cells assessed as growth inhibition at 1 ug/ml after 24 hrs by MTT assay; conditions: read-out: GI
Bel-7402 [6] = assay: Cytotoxicity against human Bel7402 cells assessed as growth inhibition at 100 ug/ml after 24 hrs by MTT assay; conditions: Bel-7402, 24 h, read-out: GI
Bel-7402 [7] = assay: Cytotoxicity against human Bel7402 cells assessed as growth inhibition at 10 ug/ml after 24 hrs by MTT assay; conditions: Bel-7402, 24 h, read-out: GI
Bel-7402 [8] = assay: Cytotoxicity against human Bel7402 cells assessed as growth inhibition at 0.1 ug/ml after 24 hrs by MTT assay; conditions: Bel-7402, 24 h, read-out: GI
PC-3 [9] = assay: Cytotoxicity against human PC3 cells assessed as growth inhibition at 100 ug/ml after 24 hrs by MTT assay; conditions: PC-3, 24 h, read-out: GI
PC-3 [10] = assay: Cytotoxicity against human PC3 cells assessed as growth inhibition at 10 ug/ml after 24 hrs by MTT assay; conditions: for inhibition of growth at 10 µg/mL: PC-3, 24 h, read-out: GI
PC-3 [11] = assay: Cytotoxicity against human PC3 cells assessed as growth inhibition at 1 ug/ml after 24 hrs by MTT assay; conditions: for inhibition of growth at 1 µg/mL: PC-3, 24 h, read-out: GI
PC-3 [12] = assay: Cytotoxicity against human PC3 cells assessed as growth inhibition at 0.1 ug/ml after 24 hrs by MTT assay; conditions: for inhibition of growth at 0.1 µg/mL: PC-3, 24 h, read-out: GI
NCI-H460 [13] = assay: Cytotoxicity against human NCI-H460 cells assessed as growth inhibition at 100 ug/ml after 24 hrs by MTT assay; conditions: NCI-H460, 24 h, read-out: GI
NCI-H460 [14] = assay: Cytotoxicity against human NCI-H460 cells assessed as growth inhibition at 1 ug/ml after 24 hrs by MTT assay; conditions: NCI-H460, 24 h, read-out: GI
NCI-H460 [15] = assay: Cytotoxicity against human NCI-H460 cells assessed as growth inhibition at 0.1 ug/ml after 24 hrs by MTT assay; conditions: NCI-H460, 24 h, read-out: GI
KB [16] = assay: Cytotoxicity against human KB cells assessed as growth inhibition at 0.1 ug/ml after 24 hrs by MTT assay; conditions: read-out: GI
Bel-7402 [17] = assay: Cytotoxicity against human Bel7402 cells assessed as growth inhibition at 1 ug/ml after 24 hrs by MTT assay; conditions: Bel-7402, 24 h, read-out: GI
NCI-H460 [18] = assay: Cytotoxicity against human NCI-H460 cells assessed as growth inhibition at 10 ug/ml after 24 hrs by MTT assay; conditions: NCI-H460, 24 h, read-out: GI
[19] = Cytotoxicity against human HO8910 cells assessed as growth inhibition at 10 ug/ml after 24 hrs by MTT assay; conditions: HO-8910, 24 h, read-out: GI
[20] = Cytotoxicity against human HO8910 cells assessed as growth inhibition at 0.1 ug/ml after 24 hrs by MTT assay; conditions: HO-8910, 24 h, read-out: GI

SMILES | inhibition of growth at 100 µg/mL [1] | inhibition of growth at 1 µg/mL [2] | inhibition of growth at 100 µg/mL (KB [3]) | inhibition of growth at 10 µg/mL (KB [4]) | inhibition of growth at 1 µg/mL (KB [5]) | inhibition of growth at 100 µg/mL (Bel-7402 [6]) | inhibition of growth at 10 µg/mL (Bel-7402 [7]) | inhibition of growth at 0.1 µg/mL (Bel-7402 [8]) | inhibition of growth at 100 µg/mL (PC-3 [9]) | inhibition of growth at 10 µg/mL (PC-3 [10]) | inhibition of growth at 1 µg/mL (PC-3 [11]) | inhibition of growth at 0.1 µg/mL (PC-3 [12]) | inhibition of growth at 100 µg/mL (NCI-H460 [13]) | inhibition of growth at 1 µg/mL (NCI-H460 [14]) | inhibition of growth at 0.1 µg/mL (NCI-H460 [15]) | inhibition of growth at 0.1 µg/mL (KB [16]) | inhibition of growth at 1 µg/mL (Bel-7402 [17]) | inhibition of growth at 10 µg/mL (NCI-H460 [18]) | inhibition of growth at 10 µg/mL [19] | inhibition of growth at 0.1 µg/mL [20] | other results
O=C(O)CCCCC(CCSC(=O)c1ccccc1)SC(=O)c1ccccc1 (stereo not given) | 86.7% | 0.29% | 89.8% | 2.68% | 0.68% | 81% | 2.76% | 1.09% | 91.2% | 7.43% | 9.86% | 9.54% | 72.8% | 0.77% |  |  |  |  |  |  | 
O=C(CCCC[C@@H]1CCSS1)Nc1ccc([N+](=O)[O-])c(C(F)(F)F)c1 | 39.2% |  | 49.1% |  |  | 43.4% |  |  | 59% |  |  |  | 35.4% |  |  |  |  |  |  |  | growth inhibition (GI) (PC-3 [10]): inactive; growth inhibition (GI) (PC-3 [11]): inactive; growth inhibition (GI) (PC-3 [12]): inactive
O=C(CCCCC1CCSS1)Nc1ccc([N+](=O)[O-])c(C(F)(F)F)c1 (stereo not given) | 47.6% | 0.96% | 49.5% |  |  | 23.9% |  | 5.04% | 90.2% |  |  | 5.37% | 51.6% | 19.1% | 18.8% | 4.5% | 7.46% | 12% |  |  | growth inhibition (GI) (PC-3 [10]): inactive; growth inhibition (GI) (PC-3 [11]): inactive
O=C(CCCCC(S)CCS)Nc1ccc(Cl)cn1 (stereo not given) | 71.2% |  | 76.5% | 21.6% |  | 50.7% | 17.8% |  | 32.4% | 10.8% | 0.89% |  | 55.8% |  |  |  | 2.34% | 27.4% | 21.9% | 2.65% | growth inhibition (GI) (PC-3 [12]): inactive
O=C(CCCCC1CCSS1)Nc1cccc(Cl)c1 (stereo not given) | 68.3% |  | 76.5% | 7.88% |  | 68.2% | 4.15% | 0.33% | 79.5% | 13.8% | 8.44% | 17.1% | 65.2% | 8.85% | 6.08% | 2.85% | 1.11% | 10.1% |  |  | 
Cc1cccc(NC(=O)CCCCC2CCSS2)c1 (stereo not given) | 62.7% | 4.54% | 68% | 4.13% | 5.2% | 49.9% | 9.01% | 9.88% | 75.1% | 9.57% | 9.98% | 2.13% | 52.9% | 7.82% | 7.97% | 4.29% | 10.3% | 4.15% |  | 3.68% | 
O=C(CCCC[C@H]1CCSS1)Nc1ccc([N+](=O)[O-])c(C(F)(F)F)c1 | 92.3% |  | 95.8% |  |  | 94% |  |  | 79.8% |  |  |  | 92.2% |  |  |  |  |  |  | 1.06% | growth inhibition (GI) (PC-3 [10]): inactive; growth inhibition (GI) (PC-3 [11]): inactive; growth inhibition (GI) (PC-3 [12]): inactive
O=C(CCCCC(S)CCS)Nc1ccc(OC(F)(F)F)cc1 (stereo not given) | 66.8% | 0.56% | 73.3% | 15% | 6% | 49.7% | 14.2% |  | 75.5% | 42.5% | 12.6% | 14.9% | 65.1% | 19.1% | 17.2% | 7.27% | 7.32% | 29.2% | 6.11% |  | 
O=C(CCCCC(S)CCS)Nc1ccc([N+](=O)[O-])c(C(F)(F)F)c1 (stereo not given) | 92.7% | 1.17% | 95.5% | 4.04% | 10.2% | 91.7% |  | 6.54% | 79.9% | 45.5% | 1.08% | 8.06% | 95.8% | 6.29% | 3.2% |  | 0.68% | 0.97% |  | 1.95% | 
O=C(CCCCC1CCSS1)Nc1ccc(Cl)cc1 (stereo not given) | 74.8% |  | 83.1% | 21.7% | 18.6% | 76.4% | 7.01% | 3.37% | 41.2% | 14.7% | 13.7% | 18.9% | 68.7% | 10.9% | 13% | 16.4% | 0.64% | 18.3% | 0.75% |  | 
O=C(CCCCC1CCSS1)Nc1ccc([N+](=O)[O-])cc1 (stereo not given) | 64.5% | 0.33% | 71.3% | 14.4% |  | 52.6% | 4.83% |  | 79.6% | 6.67% | 19.9% | 13.9% | 56.7% | 7.45% | 11.9% | 0.22% |  | 22.7% | 0.61% |  | 
CC(=O)SCCC(CCCCC(=O)Nc1ccc(Cl)cc1)SC(C)=O (stereo not given) | 58.8% | 0.35% | 72% | 18.1% | 14.8% | 45.5% | 5.78% | 9.96% |  |  |  |  | 47.3% | 15.4% | 9.89% | 11.4% | 3.07% | 14.8% | 1.47% | 1.81% | 

Source: ChEMBL document CHEMBL1157124, “Synthesis and anticancer evaluation of alpha-lipoic acid derivatives” (Bioorg Med Chem Lett, 2010)
